Data as given in EP0241395A2, “Sweeteners derived from n-phenylguanidinoacetic and n-phenylethananamidinacetic acids, and compositions containing such sweeteners” (UNIVERSITE CLAUDE BERNARD - LYON 1, priority 1986, dated 1987).

System: groupe de huit goûteurs expérimentés
Assay: Sweetening power judged by a panel of eight experienced tasters against a sucrose reference solution
Assay type: in vivo
Conditions: weight basis; for Pouvoir édulcorant: Table II, relative to a 2 % sucrose solution; for pouvoir édulcorant, sur une base pondérale: approximate
Source text: Le pouvoir édulcorant des composés préparés dans les exemples suivants a été évalué par un groupe de huit goûteurs expérimentés. Pour cela, les composés, en solution aqueuse à des concentrations variables, sont comparés, sur le plan gustatif, à une solution témoin de saccharose à 2 % et dans certains cas à 5 % et 10 %, c'est-à-dire à des concentrations correspondant à celles utilisées lors d'un usage courant. Le pouvoir sucrant des édulcorants de synthèse varie en effet suivant la concentration de la solution de saccharose utilisée comme référence. Le pouvoir édulcorant du composé testé par rapport au saccharose correspond alors au rapport pondéral qui existe entre le composé et le saccharose à égale intensité édulcorante, c'est-à-dire quand les saveurs sucrées de la solution du composé testé et de la solution témoin de saccharose sont considérées, par une majorité de goûteurs, avoir la même intensité édulcorante.

[1] = by comparison with a 2 % sucrose solution
[2] = by comparison with a 5 % sucrose solution
[3] = by comparison with a 10 % sucrose solution

Row | Compound | Pouvoir édulcorant | pouvoir édulcorant, sur une base pondérale [1] | pouvoir édulcorant, sur une base pondérale [2] | pouvoir édulcorant, sur une base pondérale [3]
1 | C[C@H](NC(=Nc1cc(Cl)cc(Cl)c1)NCC(=O)O)c1ccccc1 [Exemple 26, acide N-[N-(S)-α-méthylbenzylamino (3,5-dichlorophénylimino)méthyl]-2-aminoéthanoïque] | 120000 | ~120 000 fois celui du saccharose | ~90 000 fois celui du saccharose | ~50 000 fois celui du saccharose
2 | C[C@H](NC(=Nc1ccc(Cl)cc1)NCC(=O)O)c1ccccc1 [Exemple 13, acide N-[N-(S)-α-méthylbenzylamino (4-chlorophénylimino)méthyl]-2-aminoéthanoïque] | 3000 | ~3 000 fois celui du saccharose |  | 
3 | COc1cccc(N=C(NCC(=O)O)N[C@@H](C)c2ccccc2)c1 [Exemple 9, acide N-[N-(S)-ot-méthylbenzylamino (3-méthoxyphénylimino)méthyl]-2-aminoéthanoïque] | 4 500 | ~4 500 fois celui du saccharose |  | 
4 | CSc1ccc(N=C(NCC(=O)O)N[C@@H](C)c2ccccc2)cc1 [Exemple 21, acide N-[N-(S)-a-méthylbenzylamino (4-méthylmercaptophénylimino)méthyl)-2-aminoéthanoïque] | 1200 | ~1200 times sucrose |  | 
5 | Cc1cccc(NC(=Nc2ccc(C#N)cc2)NCC(=O)O)c1 [Exemple 65, acide N-[N-(3-méthylphényl)amino(4-cyanophénylimino)méthyl]-2-aminoéthanoïque] | 9000 | ~9 000 fois celui du saccharose |  | 
6 | C[C@H](NC(=Nc1cccc([N+](=O)[O-])c1)NCC(=O)O)c1ccccc1 [Exemple 8, acide N-[N-(S)-α-méthylbenzylamino (3-nitrophénylimino)méthyl] -2-aminoéthanoique] | 6000 | ~6 000 fois celui du saccharose |  | 
7 | O=C(O)CNC(=Nc1cc(Cl)cc(Cl)c1)NC1CCCCCCC1 [Exemple 46, acide N-[N-cyclooctylamino (3,5-dichlorophénylimino)méthyl]-2-aminoéthanoïque] | 60000 | ~60 000 fois celui du saccharose |  | 
8 | C[C@H](NC(=Nc1cc(F)cc(F)c1)NCC(=O)O)c1ccccc1 [Exemple 27, acide N-[N-(S)-α-méthylbenzylamine (3,5-difluorophënylimino)méthyl]-2-aminoéthanoïque] | 15000 | ~15 000 fois celui du saccharose |  | 
9 | CC(=O)c1ccc(N=C(NCC(=O)O)N[C@@H](C)c2ccccc2)cc1 [Exemple 15, acide N-[N-(S) -α-méthylbenzylamino (4-acétylphénylimino)méthyl]-2-aminoéthanoïque] | 800 | ~800 fois celui du saccharose |  | 
10 | CSc1cccc(N=C(NCC(=O)O)N[C@@H](C)c2ccccc2)c1 [Exemple 10, acide N-[N-(S)-a-méthylbenzylamino (3-méthylmercaptophénylimino)méthyl]-2-aminoéthanoïque] | 5 500 | ~5 500 fois celui du saccharose |  | 
11 | N#Cc1ccc(N=C(NCC(=O)O)NC2CCCCCC2)cc1 [Exemple 45, acide N-[N-cycloheptylamino(4-cyanophénylimino)méthyl]-2-aminoéthanoïque] | 60000 | ~60 000 fois celui du saccharose |  | 
12 | N#Cc1ccc(N=C(NCC(=O)O)Nc2cccc(Cl)c2)cc1 [Exemple 80, acide N-[N-(3-chlorophényl)amino(4-cyanophénylimino)méthyl]-2-aminoéthanoïque] | 10000 |  |  | 
13 | C[C@H](NC(=Nc1ccc(Cl)c(Cl)c1)NCC(=O)O)c1ccccc1 [Exemple 23, acide N-[N-(S) -α-méthylbenzylamino (3,4-dichlorophénylimino)méthyl]-2-aminoéthanoïque] | 17000 | ~17 000 fois celui du saccharose |  | 
14 | C[C@H](NC(=Nc1cccc(Cl)c1)NCC(=O)O)c1ccccc1 [Exemple 6, acide N-[N-(S)-α-méthylbenzylamino (3-chlorophénylimino)méthyl]-2-aminoéthanoïque] | 30000 | ~30 000 fois celui du saccharose |  | 
15 | O=C(O)CNC(=Nc1cc(Cl)cc(Cl)c1)NCC1CCCCC1 [Exemple 57, acide N-[N-cyclohexylméthylamino (3,5-dichlorophénylimino)méthyl]-2-aminoéthanoïque] | 35000 | ~35 000 fois celui du saccharose |  | 
16 | C[C@H](NC(=Nc1ccc([N+](=O)[O-])cc1)NCC(=O)O)c1ccccc1 [Exemple 18, acide N-[N-(S)-a-méthylbenzylamino (4-nitrophénylimino)méthyl]-2-aminoéthanoïque] | 7000 | ~7 000 fois celui du saccharose |  | 
17 | C[C@H](NC(=Nc1cccc(C#N)c1)NCC(=O)O)c1ccccc1 [Exemple 7, acide N-[N-(S)-α-méthylbenzylamino (3-cyanophénylimino)méthyl]-2-aminoéthanoïque] | 5 500 | ~5 500 fois celui du saccharose |  | 
18 | Cc1cc(N=C(NCC(=O)O)N[C@@H](C)c2ccccc2)ccc1C#N [Exemple 22, acide N-[N-(S)-a-méthylbenzylamino (4-cyano-3-méthylphénylimino)méthyl]-2-aminoéthanoïque] | 50000 | ~50 000 fois celui du saccharose |  | 
19 | CC1(NC(=Nc2ccc(C#N)cc2)NCC(=O)O)CCCCC1 [Exemple 67] | 100 | ~100 fois celui du saccharose |  | 
20 | N#Cc1ccc(N=C(NCC(=O)O)NC2CCCCCCCC2)cc1 [Exemple 50, acide N-[N-cyclononylamino(4-cyanophénylimino)méthyl]-2-aminoéthanoïque] | 200000 | ~200 000 fois celui du saccharose |  | 
21 | N#Cc1ccc(N=C(NCC(=O)O)NCC2CCCCC2)cc1 [Exemple 59, acide N-[N-cyclohexylméthylamino(4-cyanophénylimino)méthyl]-2-aminoéthanoïque] | 35000 | ~35 000 fois celui du saccharose | ~28 000 fois celui du saccharose | ~17 000 fois celui du saccharose
22 | O=C(O)CNC(=Nc1ccc(Cl)cc1)NCC1CCCCC1 [Exemple 58, acide N-[N-cyclohexylméthylamino(4-chlorophénylimino)méthyl]-2-aminoéthanoïque] | 3500 | ~3 500 fois celui du saccharose | ~2 700 fois celui du saccharose | ~1 500 fois celui du saccharose
23 | N#Cc1ccc(N=C(NCC(=O)O)Nc2ccccc2)cc1 [Exemple 41, acide N-[N-phénylamino(4-cyanophénylimino)méthyl]-2-aminoéthanoïque] | 4000 | ~4 000 fois celui du saccharose | ~1 800 fois celui du saccharose | ~650 fois celui du saccharose
24 | O=C(O)CNC(=Nc1cc(Cl)cc(Cl)c1)NCc1ccccc1 [Exemple 51, acide N-[N-benzylamino(3,5-dichlorophénylimino)méthyl]-2-aminoéthanoïque] | 80000 | ~80 000 fois celui du saccharose |  | 
25 | N#Cc1ccc(N=C(NCC(=O)O)NC2CCc3ccccc32)cc1 (stereo not drawn) [Exemple 70, acide N-[N-(1-indanyl)amino(4-cyanophénylimino)méthyl]-2-aminoéthanoïque] | 5000 | ~5 000 fois celui du saccharose |  | 
26 | C[C@H](NC(=Nc1cc(Cl)c(Cl)c(Cl)c1)NCC(=O)O)c1ccccc1 [Exemple 28, acide N-[N-(S)-α-méthylbenzylamino (3,4,5-trichlorophénylimino)méthyl]-2-aminoéthanoïque] | 35000 | ~35 000 fois celui du saccharose |  | 
27 | O=C(O)CNC(=C[N+](=O)[O-])Nc1cc(Cl)cc(Cl)c1 [Exemple 29, acide N-[2-nitro(3,5-dichlorophénylamino)éthényl]-2-aminoéthanoïque] | 400 | ~400 fois celui du saccharose |  | 
28 | CC(NC(=Nc1cc(Cl)cc(Cl)c1)N[C@H](C)C(=O)O)c1ccccc1 (stereo partly drawn) [Exemple 86, acide (R)-N-[N-(S)-α-méthylbenzylamino(3,5-dichlorophénylimino)méthyl]-2-aminopropanoïque] | 120 | ~120 fois celui du saccharose |  | 
29 | N#Cc1ccc(N=C(NCC(=O)O)N2CCCC2)cc1 [Exemple 82, acide N-[N,N-(tétraméthylène)amino (4-cyanophénylimino)méthyl]-2-aminoéthanoïque] | 100 | ~100 fois celui du saccharose |  | 
30 | N#CC(C#N)=C(NCC(=O)O)Nc1cc(Cl)cc(Cl)c1 [Exemple 30, acide N-[2,2-dicyano(3,5-dichlorophénylamino)éthényl]-2-aminoéthanoïque] | 30 |  |  | 
